Assays:
Type in all cases: biochemical
FAAH = biological target: T1, FAAH (Mus musculus, UniProt O08914); assay: In vitro competitive activity-based protein profiling (mouse), FAAH; conditions: for IC50: mouse brain membrane fraction or cell lysates, 30 min preincubation at 37° C, FP-Rh probe; for inhibition at 1 µM: mouse proteome, in vitro
T1 construct: Proteomes (mouse brain membrane fraction or cell lysates); from tissue; host or cells: mouse brain membrane fraction (or unspecified cell lysates)
T1 sequence (O08914 1-579): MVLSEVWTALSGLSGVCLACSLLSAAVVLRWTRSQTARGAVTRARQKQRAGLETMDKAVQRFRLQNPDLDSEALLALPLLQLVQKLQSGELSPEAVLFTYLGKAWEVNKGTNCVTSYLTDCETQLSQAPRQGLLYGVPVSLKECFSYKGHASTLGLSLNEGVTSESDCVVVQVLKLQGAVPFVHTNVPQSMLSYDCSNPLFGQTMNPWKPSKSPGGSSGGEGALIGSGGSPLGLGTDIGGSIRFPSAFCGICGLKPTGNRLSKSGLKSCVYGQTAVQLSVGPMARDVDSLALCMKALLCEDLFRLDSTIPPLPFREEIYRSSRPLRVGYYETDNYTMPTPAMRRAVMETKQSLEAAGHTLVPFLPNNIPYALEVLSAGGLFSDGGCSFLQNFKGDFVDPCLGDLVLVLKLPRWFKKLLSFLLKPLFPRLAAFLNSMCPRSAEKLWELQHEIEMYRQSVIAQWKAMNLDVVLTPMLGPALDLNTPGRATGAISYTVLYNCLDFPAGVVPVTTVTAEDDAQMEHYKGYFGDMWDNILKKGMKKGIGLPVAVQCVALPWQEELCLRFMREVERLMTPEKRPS
Protocol: (§1) In Vitro Competitive Activity-Based Protein Profiling (Mouse).
Proteomes (mouse brain membrane fraction or cell lysates) (50 μL, 1.0 mg/mL total protein concentration) were preincubated with varying concentrations of inhibitors at 37° C. After 30 min, FP-Rh (1.0 μL, 50 μM in DMSO) was added and the mixture was incubated for another 30 min at 37° C. Reactions were quenched with SDS loading buffer (50 μL-4×) and run on SDS-PAGE. Following gel imaging, serine hydrolase activity was determined by measuring fluorescent intensity of gel bands corresponding to MAGL, ABHD6 and FAAH using ImageJ 1.43u software.

ABHD6 = biological target: T2, ABHD6 (Mus musculus, UniProt Q8R2Y0); assay: In vitro competitive activity-based protein profiling (mouse), ABHD6; conditions: for IC50: mouse brain membrane fraction or cell lysates, 30 min preincubation at 37° C, FP-Rh probe; for inhibition at 1 µM: mouse proteome, in vitro, read-out: % Inhibition at 1 μM ABHD6
T2 construct: Proteomes (mouse brain membrane fraction or cell lysates); from tissue; host or cells: mouse brain membrane fraction (or unspecified cell lysates)
T2 sequence (Q8R2Y0 1-336): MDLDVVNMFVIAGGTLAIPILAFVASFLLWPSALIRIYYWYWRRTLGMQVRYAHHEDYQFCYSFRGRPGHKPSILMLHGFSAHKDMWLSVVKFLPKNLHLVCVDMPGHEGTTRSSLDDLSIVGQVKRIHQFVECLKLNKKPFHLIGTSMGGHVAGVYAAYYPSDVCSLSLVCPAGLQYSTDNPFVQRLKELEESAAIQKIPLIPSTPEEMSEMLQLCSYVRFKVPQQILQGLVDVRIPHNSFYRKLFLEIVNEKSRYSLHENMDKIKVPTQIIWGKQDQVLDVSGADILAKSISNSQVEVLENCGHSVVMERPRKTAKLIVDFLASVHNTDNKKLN
Protocol: as §1
(§2) Proteomes (mouse brain membrane fraction or cell lysates) (50 μL, 1.0 mg/mL total protein concentration) were preincubated with varying concentrations of inhibitors at 37° C. After 30 min, FP-Rh (1.0 μL, 50 μM in DMSO) was added and the mixture was incubated for another 30 min at 37° C. Reactions were quenched with SDS loading buffer (50 μL-4×) and run on SDS-PAGE.

MAGL = biological target: T3, MAGL (Mus musculus, UniProt O35678); assay: In vitro competitive activity-based protein profiling (mouse), MAGL; conditions: for IC50: mouse brain membrane fraction or cell lysates, 30 min preincubation at 37° C, FP-Rh probe; for inhibition at 1 µM: mouse proteome, in vitro, read-out: % Inhibition at 1 μM MAGL
T3 construct: Proteomes (mouse brain membrane fraction or cell lysates); from tissue; host or cells: mouse brain membrane fraction (or unspecified cell lysates)
T3 sequence (O35678 1-303): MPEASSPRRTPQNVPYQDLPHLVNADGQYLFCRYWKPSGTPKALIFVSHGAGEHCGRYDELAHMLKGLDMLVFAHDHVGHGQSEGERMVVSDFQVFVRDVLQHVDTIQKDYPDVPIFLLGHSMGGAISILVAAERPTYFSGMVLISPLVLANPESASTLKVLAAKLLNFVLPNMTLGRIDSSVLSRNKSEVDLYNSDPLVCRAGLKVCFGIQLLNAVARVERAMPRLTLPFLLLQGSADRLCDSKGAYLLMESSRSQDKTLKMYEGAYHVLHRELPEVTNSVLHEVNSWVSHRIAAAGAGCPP
Protocol: as §1, §2

| SMILES | IC50 (FAAH) [nM] | IC50 (ABHD6) [nM] | IC50 (MAGL) [nM] | inhibition at 1 µM (FAAH) [%] | inhibition at 1 µM (ABHD6) [%] | inhibition at 1 µM (MAGL) [%] |
| --- | --- | --- | --- | --- | --- | --- |
| COC(=O)c1cc(CN2CCN(C(=O)OC(C(F)(F)F)C(F)(F)F)CC2)ccc1N1CCOCC1 [Example 5, 1,1,1,3,3,3-hexafluoropropan-2-yl 4-(3-(methoxycarbonyl)-4-morpholinobenzyl)piperazine-1-carboxylate] | > 1000 | 100 to 1000 | < 100 | – | – | – |
| O=C(OC(C(F)(F)F)C(F)(F)F)N1CCN(Cc2ccc(Cl)cc2N2CC3CN(C4CC4)CC3C2)CC1 (stereo not drawn) [Example 64, 1,1,1,3,3,3-hexafluoropropan-2-yl 4-(4-chloro-2-(5-cyclopropylhexahydropyrrolo[3,4-c]pyrrol-2(1H)-yl)benzyl)piperazine-1-carboxylate] | > 1000 | > 1000 | 100 to 1000 | < 25 | < 25 | > 75 |
| O=C(OC(C(F)(F)F)C(F)(F)F)N1CCN(Cc2c(N3CC4CCC(C3)O4)cccc2C(F)(F)F)CC1 [Example 50, 1,1,1,3,3,3-hexafluoropropan-2-yl 4-(2-(8-oxa-3-azabicyclo[3.2.1]octan-3-yl)-6-(trifluoromethyl)benzyl)piperazine-1-carboxylate] | – | – | – | < 25 | < 25 | < 25 |
| O=C(OC(C(F)(F)F)C(F)(F)F)N1CCN(Cc2ccc(Cl)cc2N2CCC3(CCCN3C3CC3)CC2)CC1 [Example 66, 1,1,1,3,3,3-hexafluoropropan-2-yl 4-(4-chloro-2-(1-cyclopropyl-1,8-diazaspiro[4.5]decan-8-yl)benzyl)piperazine-1-carboxylate] | > 1000 | > 1000 | 100 to 1000 | < 25 | 25 to 75 | > 75 |
| O=C(O)C1CCN(c2cc(Cl)ccc2CN2CCN(C(=O)OC(C(F)(F)F)C(F)(F)F)CC2)CC1 [Example 62, 1-(5-chloro-2-((4-(((1,1,1,3,3,3-hexafluoropropan-2-yl)oxy)carbonyl)piperazin-1-yl)methyl)phenyl)piperidine-4-carboxylic acid] | > 1000 | > 1000 | 100 to 1000 | < 25 | < 25 | > 75 |
| O=C(OC(C(F)(F)F)C(F)(F)F)N1CCN(Cc2cccc(CN3CCOCC3)c2F)CC1 [Example 22, 1,1,1,3,3,3-hexafluoropropan-2-yl 4-(2-fluoro-3-(morpholinomethyl)benzyl)piperazine-1-carboxylate] | > 1000 | 100 to 1000 | < 100 | < 25 | > 75 | > 75 |
| O=C(O)C1CCN(c2cc(CN3CCN(C(=O)OC(C(F)(F)F)C(F)(F)F)CC3)ccc2C(F)(F)F)CC1 [Example 85, 1-(5-((4-(((1,1,1,3,3,3-hexafluoropropan-2-yl)oxy)carbonyl)piperazin-1-yl)methyl)-2-(trifluoromethyl)phenyl)piperidine-4-carboxylic acid] | > 1000 | 100 to 1000 | 100 to 1000 | < 25 | > 75 | 25 to 75 |
| O=C(O)C1CN(c2cc(CN3CCN(C(=O)OC(C(F)(F)F)C(F)(F)F)CC3)cc(C(F)(F)F)c2)CCO1 (stereo not drawn) [Example 92, 4-(3-((4-(((1,1,1,3,3,3-hexafluoropropan-2-yl)oxy)carbonyl)piperazin-1-yl)methyl)-5-(trifluoromethyl)phenyl)morpholine-2-carboxylic acid] | > 1000 | > 1000 | < 100 | < 25 | < 25 | > 75 |
| O=C(OC(C(F)(F)F)C(F)(F)F)N1CCN(Cc2ccc(C(F)(F)F)c(N3CCC(CO)C3)c2)CC1 (stereo not drawn) [Example 81, 1,1,1,3,3,3-hexafluoropropan-2-yl 4-(3-(3-(hydroxymethyl)pyrrolidin-1-yl)-4-(trifluoromethyl)benzyl)piperazine-1-carboxylate] | > 1000 | 100 to 1000 | 100 to 1000 | < 25 | > 75 | > 75 |
| O=C(O)C(=O)c1cc(CN2CCN(C(=O)OC(C(F)(F)F)C(F)(F)F)CC2)ccc1C(F)(F)F [Example 84, 2-(5-((4-(((1,1,1,3,3,3-hexafluoropropan-2-yl)oxy)carbonyl)piperazin-1-yl)methyl)-2-(trifluoromethyl)phenyl)-2-oxoacetic acid] | > 1000 | < 100 | < 100 | < 25 | > 75 | > 75 |
| CN(C)C(=O)C1CCN(c2cc(Cl)ccc2CN2CCN(C(=O)OC(C(F)(F)F)C(F)(F)F)CC2)CC1 [Example 34, 1,1,1,3,3,3-hexafluoropropan-2-yl 4-(4-chloro-2-(4-(dimethylcarbamoyl)piperidin-1-yl)benzyl)piperazine-1-carboxylate] | > 1000 | > 1000 | 100 to 1000 | < 25 | < 25 | > 75 |
| Cc1c(CN2CCN(C(=O)OC(C(F)(F)F)C(F)(F)F)CC2)cccc1N1CCC(NS(C)(=O)=O)CC1 [Example 52, 1,1,1,3,3,3-hexafluoropropan-2-yl 4-(2-methyl-3-(4-(methylsulfonamido)piperidin-1-yl)benzyl)piperazine-1-carboxylate] | > 1000 | 100 to 1000 | < 100 | < 25 | > 75 | > 75 |
| Cc1c(CN2CCC(F)CC2)cccc1CN1CCN(C(=O)OC(C(F)(F)F)C(F)(F)F)CC1 [Example 15, 1,1,1,3,3,3-hexafluoropropan-2-yl 4-(3-((4-fluoropiperidin-1-yl)methyl)-2-methylbenzyl)piperazine-1-carboxylate] | > 1000 | 100 to 1000 | < 100 | < 25 | > 75 | > 75 |
| O=C(OC(C(F)(F)F)C(F)(F)F)N1CCN(Cc2ccc(CN3CCCCC3)cc2OC(F)(F)F)CC1 [Example 24, 1,1,1,3,3,3-hexafluoropropan-2-yl 4-(4-(piperidin-1-ylmethyl)-2-(trifluoromethoxy)benzyl)piperazine-1-carboxylate] | > 1000 | > 1000 | 100 to 1000 | < 25 | < 25 | > 75 |
| Cc1c(CN2CCN(C(=O)OC(C(F)(F)F)C(F)(F)F)CC2)cccc1CN1CCC(F)(F)CC1 [Example 12, 1,1,1,3,3,3-hexafluoropropan-2-yl 4-(3-((4,4-difluoropiperidin-1-yl)methyl)-2-methylbenzyl)piperazine-1-carboxylate] | > 1000 | 100 to 1000 | < 100 | < 25 | > 75 | > 75 |
| O=C(OC(C(F)(F)F)C(F)(F)F)N1CCN(Cc2cc(N3CCC(CO)C3)cc(C(F)(F)F)c2)CC1 (stereo not drawn) [Example 90, 1,1,1,3,3,3-hexafluoropropan-2-yl 4-(3-(3-(hydroxymethyl)pyrrolidin-1-yl)-5-(trifluoromethyl)benzyl)piperazine-1-carboxylate] | > 1000 | 100 to 1000 | < 100 | < 25 | > 75 | > 75 |

— patent US9771341B2, “Piperazine carbamates and methods of making and using same” (Abide Therapeutics, Inc., priority 2015, dated 2017)
